Source: patent US11214803B2, “Modulators of YAP1 expression” (Ionis Pharmaceuticals, Inc., priority 2019, dated 2022)
Strand notation (5' to 3'): a small letter for the sugar, then the base; units joined by * are phosphorothioate-linked, units joined directly phosphodiester-linked; [ ] holds rarer units or linkages, { } end groups; capitals alone tell only the bases. k = constrained ethyl (cEt); [5mC] = 5-methylcytosine; d = 2'-deoxy (DNA)

System: Yap1 mRNA
Assay: Dose-dependent inhibition of human Yap1 in A-431 cells (Example 7, 10,000 cells per well, RTS36584)
Type: cell-based
Conditions: free uptake
How it was run: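 Yap1 mRNA was expressed as percent of untreated control after normalization to total RNA (RIBOGREEN), and IC50 was derived by log/linear linear regression. The read-out used primer-probe set RTS36584 roughly 48 hours after free-uptake dosing of oligonucleotides into A-431 cells (10,000 cells/well).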

[1] = Table 61, 15.6 nM, A-431 cells 10,000 cells per well, 48 hours
[2] = Table 61, 62.5 nM, A-431 cells 10,000 cells per well, 48 hours
[3] = Table 61, 4000.00 nM, A-431 cells 10,000 cells per well, 48 hours
[4] = Table 61, A-431 cells 10,000 cells per well
[5] = Table 57, 15.6 nM, A-431 cells 10,000 cells per well, 48 hours
[6] = Table 57, 62.5 nM, A-431 cells 10,000 cells per well, 48 hours
[7] = Table 57, 4000.00 nM, A-431 cells 10,000 cells per well, 48 hours
[8] = Table 57, A-431 cells 10,000 cells per well
[9] = Table 58, 15.6 nM, A-431 cells 10,000 cells per well, 48 hours
[10] = Table 58, 62.5 nM, A-431 cells 10,000 cells per well, 48 hours
[11] = Table 58, 4000.00 nM, A-431 cells 10,000 cells per well, 48 hours
[12] = Table 58, A-431 cells 10,000 cells per well
[13] = 15.6 nM, A-431 cells, 10,000 cells per well, approximately 48 hours
[14] = 62.5 nM, A-431 cells, 10,000 cells per well, approximately 48 hours
[15] = 4000.00 nM, A-431 cells, 10,000 cells per well, approximately 48 hours
[16] = A-431 cells, approximately 48 hours, linear regression on log/linear plot
[17] = Table 60, 15.6 nM, A-431 cells 10,000 cells per well, 48 hours
[18] = Table 60, 62.5 nM, A-431 cells 10,000 cells per well, 48 hours
[19] = Table 60, 4000.00 nM, A-431 cells 10,000 cells per well, 48 hours
[20] = Table 60, A-431 cells 10,000 cells per well
[21] = Table 56, 15.6 nM, A-431 cells 10,000 cells per well, 48 hours
[22] = Table 56, 62.5 nM, A-431 cells 10,000 cells per well, 48 hours
[23] = Table 56, 4000.00 nM, A-431 cells 10,000 cells per well, 48 hours
[24] = Table 56, A-431 cells 10,000 cells per well

958724 (kT*k[5mC]*kA*dG*dT*dT*dA*dT*d[5mC]*d[5mC]*dT*dA*dT*k[5mC]*k[5mC]*k[5mC]; antisense) [compound 958724]
Yap1 mRNA, % UTC [1]: 89 % UTC
Yap1 mRNA, % UTC [2]: 55 % UTC
Yap1 mRNA, % UTC [3]: 6 % UTC
IC50 [4]: 100 nM

958781 (kG*kT*k[5mC]*dA*dT*d[5mC]*dT*dA*dT*dG*dT*dG*dT*k[5mC]*k[5mC]*kT; antisense) [compound 958781]
Yap1 mRNA, % UTC [5]: 77 % UTC
Yap1 mRNA, % UTC [6]: 45 % UTC
Yap1 mRNA, % UTC [7]: 10 % UTC
IC50 [8]: 100 nM

958757 (kG*kT*kG*dA*dT*d[5mC]*dT*dG*d[5mC]*dA*d[5mC]*dA*dT*kT*kG*kT; antisense) [compound 958757]
Yap1 mRNA, % UTC [9]: 110 % UTC
Yap1 mRNA, % UTC [10]: 89 % UTC
Yap1 mRNA, % UTC [11]: 27 % UTC
IC50 [12]: 300 nM

958544 (kG*k[5mC]*kT*dA*dA*dA*dT*dT*d[5mC]*dA*dA*d[5mC]*dT*kA*k[5mC]*k[5mC]; antisense) [compound 958544]
Yap1 mRNA, % UTC [13]: 65 % UTC
Yap1 mRNA, % UTC [14]: 77 % UTC
Yap1 mRNA, % UTC [15]: 17 % UTC
IC50 [16]: 100 nM

958535 (kG*kG*kG*dT*d[5mC]*dA*dA*dT*dT*dT*dT*d[5mC]*dA*kG*k[5mC]*kA; antisense) [compound 958535]
Yap1 mRNA, % UTC [13]: 98 % UTC
Yap1 mRNA, % UTC [14]: 64 % UTC
Yap1 mRNA, % UTC [15]: 19 % UTC
IC50 [16]: 200 nM

958644 (kA*kT*kG*dA*dT*d[5mC]*dA*dA*dA*d[5mC]*d[5mC]*dT*dT*kT*kT*k[5mC]; antisense) [compound 958644]
Yap1 mRNA, % UTC [1]: 97 % UTC
Yap1 mRNA, % UTC [2]: 85 % UTC
Yap1 mRNA, % UTC [3]: 24 % UTC
IC50 [4]: 300 nM

958474 (kG*kT*kG*dT*d[5mC]*dT*d[5mC]*d[5mC]*dT*dT*dA*dG*dA*kT*k[5mC]*k[5mC]; antisense) [compound 958474]
Yap1 mRNA, % UTC [1]: 63 % UTC
Yap1 mRNA, % UTC [2]: 37 % UTC
Yap1 mRNA, % UTC [3]: 11 % UTC
IC50 [4]: 30 nM

958605 (k[5mC]*kT*k[5mC]*dA*dG*dA*dT*dG*dT*dA*d[5mC]*d[5mC]*dA*kA*k[5mC]*kG; antisense) [compound 958605]
Yap1 mRNA, % UTC [13]: 76 % UTC
Yap1 mRNA, % UTC [14]: 63 % UTC
Yap1 mRNA, % UTC [15]: 9 % UTC
IC50 [16]: 100 nM

958500 (kT*k[5mC]*kT*dA*dT*dA*dT*dT*dA*dG*dA*dG*dT*kA*kT*kG) [compound 958500]
Yap1 mRNA, % UTC [13]: 91 % UTC
Yap1 mRNA, % UTC [14]: 63 % UTC
Yap1 mRNA, % UTC [15]: 16 % UTC
IC50 [16]: 100 nM

958527 (kG*kT*kA*dA*dG*dT*dA*dA*dG*dA*dA*d[5mC]*dA*kA*kT*k[5mC]; antisense) [compound 958527]
Yap1 mRNA, % UTC [9]: 89 % UTC
Yap1 mRNA, % UTC [10]: 74 % UTC
Yap1 mRNA, % UTC [11]: 13 % UTC
IC50 [12]: 100 nM

958568 (kT*kA*kT*dG*dA*dG*dT*dG*dA*dT*d[5mC]*dA*dA*k[5mC]*k[5mC]*kT; antisense) [compound 958568]
Yap1 mRNA, % UTC [17]: 88 % UTC
Yap1 mRNA, % UTC [18]: 65 % UTC
Yap1 mRNA, % UTC [19]: 21 % UTC
IC50 [20]: 100 nM

958614 (kG*kT*k[5mC]*dT*dT*dG*dT*dT*d[5mC]*dT*dT*dA*dT*kG*kG*kT; antisense) [compound 958614]
Yap1 mRNA, % UTC [1]: 84 % UTC
Yap1 mRNA, % UTC [2]: 49 % UTC
Yap1 mRNA, % UTC [3]: 13 % UTC
IC50 [4]: 100 nM

958457 (antisense kG*kT*k[5mC]*dG*dA*dA*dG*dA*dT*dG*d[5mC]*dT*dG*kA*kG*k[5mC]) [compound 958457]
Yap1 mRNA, % UTC [9]: 91 % UTC
Yap1 mRNA, % UTC [10]: 50 % UTC
Yap1 mRNA, % UTC [11]: 13 % UTC
IC50 [12]: 100 nM

958547 (k[5mC]*kA*k[5mC]*dA*dT*dA*d[5mC]*dT*d[5mC]*dT*dA*dG*dT*kT*kA*k[5mC]; antisense) [compound 958547]
Yap1 mRNA, % UTC [9]: 98 % UTC
Yap1 mRNA, % UTC [10]: 74 % UTC
Yap1 mRNA, % UTC [11]: 22 % UTC
IC50 [12]: 200 nM

958562 (k[5mC]*kA*kT*dT*dG*dA*dA*dA*dG*dA*d[5mC]*d[5mC]*d[5mC]*kT*kT*kA; antisense) [compound 958562]
Yap1 mRNA, % UTC (Table 59, 15.6 nM, A-431 cells 10,000 cells per well, 48 hours): 105 % UTC
Yap1 mRNA, % UTC (Table 59, 62.5 nM, A-431 cells 10,000 cells per well, 48 hours): 95 % UTC
Yap1 mRNA, % UTC (Table 59, 4000.00 nM, A-431 cells 10,000 cells per well, 48 hours): 28 % UTC
IC50 (Table 59, A-431 cells 10,000 cells per well): 400 nM

958600 (kG*kT*kA*dG*dA*dT*d[5mC]*dT*dA*dA*dG*dA*dA*kG*k[5mC]*k[5mC]; antisense) [compound 958600]
Yap1 mRNA, % UTC [13]: 69 % UTC
Yap1 mRNA, % UTC [14]: 44 % UTC
Yap1 mRNA, % UTC [15]: 14 % UTC
IC50 [16]: 50 nM

958505 (kG*kA*kT*dA*dA*dT*d[5mC]*dG*dA*dG*dA*dT*dT*kT*kA*kA; antisense) [compound 958505]
Yap1 mRNA, % UTC [13]: 81 % UTC
Yap1 mRNA, % UTC [14]: 72 % UTC
Yap1 mRNA, % UTC [15]: 21 % UTC
IC50 [16]: 200 nM

958531 (kG*kT*kA*dG*dG*dA*dG*d[5mC]*dA*dA*dG*dT*d[5mC]*kT*kT*kG; antisense) [compound 958531]
Yap1 mRNA, % UTC [5]: 92 % UTC
Yap1 mRNA, % UTC [6]: 63 % UTC
Yap1 mRNA, % UTC [7]: 13 % UTC
IC50 [8]: 100 nM

958742 (kA*kG*k[5mC]*dA*dA*dT*dA*dT*dG*dG*dT*dA*dT*kT*kA*kG; antisense) [compound 958742]
Yap1 mRNA, % UTC [9]: 105 % UTC
Yap1 mRNA, % UTC [10]: 70 % UTC
Yap1 mRNA, % UTC [11]: 20 % UTC
IC50 [12]: 200 nM

958476 (kT*kT*k[5mC]*d[5mC]*dG*dG*dT*dG*d[5mC]*dA*dT*dG*dT*kG*kT*k[5mC]; antisense) [compound 958476]
Yap1 mRNA, % UTC [21]: 71 % UTC
Yap1 mRNA, % UTC [22]: 30 % UTC
Yap1 mRNA, % UTC [23]: 6 % UTC
IC50 [24]: 30 nM

958807 (kT*k[5mC]*kA*dT*dT*dG*dT*dA*dG*dT*d[5mC]*dT*dG*kT*k[5mC]*kT; antisense) [compound 958807]
Yap1 mRNA, % UTC [9]: 92 % UTC
Yap1 mRNA, % UTC [10]: 65 % UTC
Yap1 mRNA, % UTC [11]: 10 % UTC
IC50 [12]: 100 nM

958472 (kT*k[5mC]*k[5mC]*dT*dT*dA*dG*dA*dT*d[5mC]*d[5mC]*dT*dT*k[5mC]*kA*k[5mC]; antisense) [compound 958472]
Yap1 mRNA, % UTC [9]: 92 % UTC
Yap1 mRNA, % UTC [10]: 63 % UTC
Yap1 mRNA, % UTC [11]: 23 % UTC
IC50 [12]: 200 nM

958549 (kT*kG*kT*dA*dG*dA*d[5mC]*dA*d[5mC]*dA*dT*dA*d[5mC]*kT*k[5mC]*kT; antisense) [compound 958549]
Yap1 mRNA, % UTC [13]: 98 % UTC
Yap1 mRNA, % UTC [14]: 78 % UTC
Yap1 mRNA, % UTC [15]: 28 % UTC
IC50 [16]: 300 nM

958546 (k[5mC]*kA*kT*dA*d[5mC]*dT*d[5mC]*dT*dA*dG*dT*dT*dA*k[5mC]*kA*kT; antisense) [compound 958546]
Yap1 mRNA, % UTC [5]: 91 % UTC
Yap1 mRNA, % UTC [6]: 72 % UTC
Yap1 mRNA, % UTC [7]: 22 % UTC
IC50 [8]: 200 nM

958575 (kG*kG*k[5mC]*dT*dA*d[5mC]*dT*dG*dG*d[5mC]*dA*dA*dA*kT*kT*kA; antisense) [compound 958575]
Yap1 mRNA, % UTC [13]: 89 % UTC
Yap1 mRNA, % UTC [14]: 58 % UTC
Yap1 mRNA, % UTC [15]: 20 % UTC
IC50 [16]: 100 nM

958481 (kG*k[5mC]*kA*dA*d[5mC]*dT*dG*dG*d[5mC]*dT*dT*dA*dT*kG*kG*kA; antisense) [compound 958481]
Yap1 mRNA, % UTC [5]: 86 % UTC
Yap1 mRNA, % UTC [6]: 62 % UTC
Yap1 mRNA, % UTC [7]: 14 % UTC
IC50 [8]: 100 nM

958598 (k[5mC]*k[5mC]*k[5mC]*dA*dA*dT*dG*d[5mC]*dT*dA*d[5mC]*d[5mC]*d[5mC]*kA*kA*kT; antisense) [compound 958598]
Yap1 mRNA, % UTC [17]: 93 % UTC
Yap1 mRNA, % UTC [18]: 58 % UTC
Yap1 mRNA, % UTC [19]: 19 % UTC
IC50 [20]: 100 nM

958377 (antisense kG*k[5mC]*kT*dG*dG*dG*dA*dT*dT*dG*dA*dT*dA*kT*kT*k[5mC]) [compound 958377]
Yap1 mRNA, % UTC [21]: 90 % UTC
Yap1 mRNA, % UTC [22]: 60 % UTC
Yap1 mRNA, % UTC [23]: 17 % UTC
IC50 [24]: 130 nM

958484 (kG*k[5mC]*kA*dG*d[5mC]*dA*dA*dT*dG*dG*dA*d[5mC]*dA*kA*kG*kG; antisense) [compound 958484]
Yap1 mRNA, % UTC [1]: 77 % UTC
Yap1 mRNA, % UTC [2]: 38 % UTC
Yap1 mRNA, % UTC [3]: 4 % UTC
IC50 [4]: 50 nM
